Tests used:
[1] = Cytotoxicity Determination; assay type: cell-based; settings: human, HEp-2 cells, without addition of virus, CCK-8 readout, bins (Table 4: greater than 100 μM; Table 5: equal to or less than 100 μM and greater than 10 μM), read-out: 50% cytotoxicity concentration (CC50)
Method: In order to determine the compound cytotoxicity, in parallel, each of the compounds is applied to duplicate wells in a 384-well cell plate at serial final concentrations starting from 100 μM using ½ stepwise dilutions for 7 points without addition of virus. Incubate the cells at 37° C., 5% CO2 for 5 days. Add 6 μl CCK-8 into each well and incubate in a CO2 incubator at 37° C. for 3-4 hours. Read the plates to obtain the optical densities which are used to calculate 50% cytotoxicity concentration (CC50).

[2] = tested on: Respiratory Syncytial Virus (RSV) long strain (ATCC#VR-26); test: RSV Antiviral Assay (CPE reduction assay); assay type: cell-based; settings: human respiratory syncytial virus, 120 h; HEp-2 cells infected with RSV long strain, 5 days, CCK-8 readout; bins (Table 2: less than 1 μM; Table 3: equal to or higher than 1 μM and less than 50 μM); read-out: 50% effective concentration (EC50)
Method: CPE reduction assays are performed as described by Sidwell and Huffman et al., Appl. Microbiol. (1971) 22(5):797-801 with slight modifications. HEp-2 cells (ATCC#, CCL-23) are seeded at a density of 1,500 cells/30 μl/well into the 384-well cell plate(s) (Corning#3701) one day prior to the assay. Compounds are added into 384-well cell plates by Labcyte POD 810 Plate Assembler system. Each of the test compounds is provided to duplicate wells of a 384-well cell plate at final concentrations starting from 100 μM or 1 μM using ⅓ stepwise dilutions for 9 points. Quick-thaw Respiratory Syncytial Virus (RSV) long strain (ATCC#VR-26) stock in a 37° C. water bath. Place on ice until ready to use. Viruses are diluted to the concentration of 100 TCID50/30 μl with medium and 30 μl diluted RSV are added into related wells of 384-well cell plates. For each plate, sixteen wells are set aside as uninfected, untreated cell controls (CC), and nine wells per test plate receive virus only as a control for virus replication (VC). The final DMSO concentration of all wells is 1%. Place the plates at 37° C., 5% CO2 for 5 days.
After 5 days incubation, observe the CPE of cells in all wells. […] Six μl of cell counting kit-8 reagent (CCK-8, Dojindo Molecular Technologies Inc., CK04-20) are added to each well, which allows colorimetric assays to determine the number of viable cells through the dehydrogenase activity detection. After 3-4 hour incubation, the absorbance of each well is measured with a spectrophotometric plate reader at 450 nm wavelength, using a 630 nm filter as background according to manufacturer's instruction. The 50% effective concentration (EC50) is calculated by using regression analysis, based on the mean O.D. at each concentration of compound.

Structure (SMILES)	CC50 at 5 days [1] [µM]	EC50 [2] [µM]
CCOc1ccc(C(=O)NCC(=O)N/N=C/c2csc3ccccc23)cc1OCC [Compound 231]	10 to 100	1 to 50
CCN(CC)c1ccc(C(=O)NCC(=O)N/N=C/c2csc3ccccc23)cc1 [Compound 235]	> 100	1 to 50
CCSc1ccc(C(=O)NCC(=O)N/N=C/c2csc3ccccc23)cc1 [Compound 238]	10 to 100	< 1
CCCC/C(=N\NC(=O)CNC(=O)c1cc(OC)c(OC)cc1Br)c1csc2ccccc12 [Compound 245]	10 to 100	1 to 50
CCCC/C(=N\NC(=O)CNC(=O)c1ccc(OC)c(OCC)c1)c1csc2ccccc12 [Compound 246A]	10 to 100	< 1
CCCC/C(=N\NC(=O)CNC(=O)c1cc(OC)c(OC)cc1Cl)c1csc2ccccc12 [Compound 247]	> 100	1 to 50
COCC/C(=N\NC(=O)CNC(=O)c1ccc(OC)c(OC)c1O)c1csc2c(F)cccc12 [Compound 300]	10 to 100	< 1
CCOCC/C(=N\NC(=O)CNC(=O)c1ccc(OC)c(OC)c1)c1csc2ccccc12 [Compound 400-1]	> 100	< 1
COc1ccc(C(=O)NCC(=O)N/N=C/c2cc3c(F)cccc3s2)cc1OC [Compound 400-2]	10 to 100	1 to 50
COc1ccc(C(=O)NCC(=O)N/N=C(\C)c2cc3c(F)cccc3s2)cc1OC [Compound 400-3]	> 100	1 to 50
COc1ccc(C(=O)NCC(=O)N/N=C(/CC2CC2)c2csc3ccccc23)cc1OC [Compound 400-5]	> 100	1 to 50
COCc1ccc(C(=O)NCC(=O)N/N=C(\C)c2csc3ccccc23)cc1OC [Compound 400-6]	> 100	1 to 50
CCCC/C(=N\NC(=O)CNC(=O)c1ccc(OC)c(OC)c1)c1csc2c(F)cccc12 [Compound 400-7]	10 to 100	< 1
COc1ccc(C(=O)NCC(=O)N/N=C(\C)c2csc3ccc(O)cc23)cc1OC [Compound 400-8]	10 to 100	1 to 50
COc1ccc2scc(/C(C)=N/NC(=O)CNC(=O)c3ccc(OC)c(OC)c3)c2c1 [Compound 400-9]	10 to 100	1 to 50
COc1ccc(C(=O)NCC(=O)N/N=C(\C)c2csc3ncccc23)cc1OC [Compound 400-10]	> 100	1 to 50
COc1ccc(C(=O)NCC(=O)N/N=C(\C)c2csc3c(Cl)cccc23)cc1OC [Compound 400-11]	10 to 100	1 to 50
COc1ccc(C(=O)NCC(=O)N/N=C/c2csc3c(Cl)cccc23)cc1OC [Compound 400-12]	10 to 100	1 to 50
COc1ccc(C(=O)NCC(=O)N/N=C(\CCO)c2csc3c(F)cccc23)cc1OC [Compound 400-13]	> 100	1 to 50
COc1ccc(C(=O)NCC(=O)N/N=C(/C)c2c(OC)sc3ccccc23)cc1OC [Compound 400-14]	> 100	1 to 50
COCC/C(=N\NC(=O)CNC(=O)c1ccc(OC)c(OC)c1)c1csc2c(F)cccc12 [Compound 400-15]	> 100	< 1
COCC/C(=N/NC(=O)CNC(=O)c1ccc(OC)c(OC)c1)c1csc2c(F)cccc12 [Compound 400-16]	> 100	1 to 50
COc1ccc(C(=O)NCC(=O)N/N=C/c2csc3cc(F)ccc23)cc1OC [Compound 400-17]	10 to 100	1 to 50
CNc1ccc2scc(/C=N/NC(=O)CNC(=O)c3ccc(OC)c(OC)c3)c2c1 [Compound 400-18]	> 100	1 to 50
COc1ccc(C(=O)NCC(=O)N/N=C(\C)c2c(OC)sc3ccccc23)cc1OC [Compound 400-19]	10 to 100	1 to 50
COCC/C(=N/NC(=O)CNC(=O)c1ccc(OC)c(OC)c1O)c1csc2c(F)cccc12 [Compound 400-21]	> 100	1 to 50
COc1ccc(C(=O)NCC(=O)N/N=C(\C)c2csc3cc(F)ccc23)cc1OC [Compound 400-22]	10 to 100	1 to 50

Structure (SMILES)	CC50 at 5 days [1] [µM]	EC50 [2] [µM]
CCN1C/C(=N\NC(=O)CNC(=O)c2ccc(OC)c(OC)c2)c2c(sc3c(F)cccc23)C1 [Compound 400-23]	> 100	< 1
CNCc1ccc(C(=O)NCC(=O)N/N=C(\CCOC)c2csc3c(F)cccc23)cc1OC [Compound 400-24]	> 100	1 to 50
CCOc1ccc(C(=O)NCC(=O)N(C)/N=C/c2csc3c(F)cccc23)cc1OC [Compound 400-25]	> 100	< 1
CCOc1ccc(C(=O)NCC(=O)N/N=C/c2csc3c(F)cccc23)cc1OC [Compound 400-26]	> 100	< 1
CCOc1ccc(C(=O)NCC(=O)N/N=C/c2c[nH]c3c(F)cccc23)cc1OC [Compound 400-27]	> 100	1 to 50
CCOc1ccc(C(=O)NCC(=O)N/N=C/c2coc3c(F)cccc23)cc1OC [Compound 400-28]	> 100	1 to 50
COc1ccc(C(=O)NCC(=O)N/N=C/c2c(C)sc3ccccc23)cc1OC [Compound 400]	10 to 100	1 to 50
COc1ccc(C(=O)NCC(=O)N/N=C/c2csc3ccccc23)cc1OC [Compound 401]	10 to 100	1 to 50
COc1ccc(C(=O)NCC(=O)N/N=C/c2cccc3ccccc23)cc1OC [Compound 402]	10 to 100	1 to 50
COc1ccc(C(=O)NCC(=O)N/N=C/c2c(C)[nH]c3ccccc23)cc1OC [Compound 403]	> 100	1 to 50
COc1ccc(C(=O)NCC(=O)N/N=C/c2cc3ccccc3o2)cc1OC [Compound 409]	10 to 100	1 to 50
COc1ccc(C(=O)NCC(=O)N/N=C(\C)c2csc3ccccc23)cc1OC [Compound 411]	10 to 100	< 1
COc1ccc(C(=O)NCC(=O)N/N=C(\C)c2c(C)sc3ccccc23)cc1OC [Compound 413]	10 to 100	1 to 50
COc1ccc(C(=O)NCC(=O)N/N=C2\CCCc3[nH]c4ccccc4c32)cc1OC [Compound 414]	10 to 100	1 to 50
CC/C(=N\NC(=O)CNC(=O)c1ccc(OC)c(OC)c1)c1csc2ccccc12 [Compound 415]	10 to 100	< 1
COc1ccc(C(=O)NCC(=O)N/N=C2\CCc3sc4ccccc4c32)cc1OC [Compound 418]	10 to 100	1 to 50
COc1ccc(C(=O)NCC(=O)N/N=C(\C)c2csc3ccc(F)cc23)cc1OC [Compound 422]	10 to 100	1 to 50
CCCC/C(=N\NC(=O)CNC(=O)c1ccc(OC)c(OC)c1)c1csc2ccccc12 [Compound 423]	> 100	< 1
COc1ccc(C(=O)NCC(=O)N/N=C(/c2csc3ccccc23)C2CC2)cc1OC [Compound 426]	10 to 100	1 to 50
CCC/C(=N\NC(=O)CNC(=O)c1ccc(OC)c(OC)c1)c1csc2ccccc12 [Compound 427]	> 100	< 1
COc1cc(C(=O)NCC(=O)c2ccc(OC)c(-c3ccc(F)c(Cl)c3)n2)ccc1OCCO [Compound 1310]		< 1
COc1cc(C(=O)NCC(=O)c2ccc(OC)c(-c3ccc(F)c(Cl)c3)n2)ccc1OC1CC(N)C1 (centres unmarked) [Compound 1359]		< 1
COc1ccc(C(=O)NCC(=O)c2ccc(OC)c(-c3cncc4ccccc34)n2)cc1OC [Compound 1512]		1 to 50
COc1ccc(C(=O)NCC(=O)c2ccc(OC)c(-c3ccccc3-c3ccccc3)n2)cc1OC [Compound 1523]		1 to 50
COc1cc(C(=O)NCC(=O)c2ccc(OC)c(-c3ccc(F)c(Cl)c3)n2)ccc1-c1cccnc1 [Compound 2504]		1 to 50
COc1cc(C(=O)NCC(=O)c2ccc(OC)c(-c3ccc(F)c(Cl)c3)n2)ccc1-c1ccncc1 [Compound 2507]		1 to 50
C#Cc1cc(C(=O)CNC(=O)c2ccc(OCCO)c(OC)c2)nc(-c2csc3c(F)cccc23)c1 [Compound 4216]		1 to 50

— patent US9724351B2, “Compounds for the treatment of paramoxyvirus viral infections” (priority 2012, dated 2017)
